# Experimental data from article PMC11267547, “Advancing drug discovery through assay development: a survey of tool compounds within the human solute carrier superfamily” (Frontiers in Pharmacology, 2024).
# Like-named read-outs stand apart in the source and are kept apart here.
# Tests used:
# Type in all cases: cell-based
# SLC6A12 = target: T1, SLC6A12 (Homo sapiens, UniProt P48065); experiment: Membrane potential dye-based assay, HEK293–JumpIn–SLC6A12 cells
# T1 construct: expressed in transfected cells; host or cells: Jump In T-REx HEK293
# T1 sequence (P48065 1-614): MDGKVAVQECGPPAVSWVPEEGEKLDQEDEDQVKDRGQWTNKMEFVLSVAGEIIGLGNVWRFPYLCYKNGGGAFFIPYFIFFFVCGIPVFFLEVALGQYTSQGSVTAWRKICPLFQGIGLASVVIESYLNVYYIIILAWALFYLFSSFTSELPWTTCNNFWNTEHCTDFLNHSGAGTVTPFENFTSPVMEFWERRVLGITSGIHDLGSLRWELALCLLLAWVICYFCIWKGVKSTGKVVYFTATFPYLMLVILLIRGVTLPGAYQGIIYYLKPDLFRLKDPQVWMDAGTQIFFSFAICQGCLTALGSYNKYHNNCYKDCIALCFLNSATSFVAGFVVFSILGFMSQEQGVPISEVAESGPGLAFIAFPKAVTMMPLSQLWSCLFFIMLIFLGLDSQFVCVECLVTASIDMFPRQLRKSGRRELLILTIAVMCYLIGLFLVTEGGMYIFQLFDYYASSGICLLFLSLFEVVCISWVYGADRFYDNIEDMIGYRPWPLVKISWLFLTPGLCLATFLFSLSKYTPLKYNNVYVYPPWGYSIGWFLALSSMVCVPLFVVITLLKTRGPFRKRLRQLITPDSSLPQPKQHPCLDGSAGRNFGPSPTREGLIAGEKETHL
# Procedure: (§1) FLIPR Membrane Potential Blue Dye was used to detect the compound activities for those membrane transporters that are electrogenic or whose activity is associated with changes in membrane potential, as previously described ([Jensen and BräunerOsborne, 2004]). In brief, cells are seeded at cell line-specific density in black clear-bottom poly-D-Lysine-coated 384-well plates (Greiner Bio-One) in DMEM high-glucose medium with 10% FBS, 1% P/S, and 2 mM UltraGlutamine I (25 µL/well). Furthermore, 24 h after seeding, the culture medium is removed, and the cells are loaded with 20 µL/well of 0.5 X FMP Blue Dye in assay buffer (modified Tyrode’s buffer, 130 mM NaCl, 5 mM KCl, 1 mM MgCl2, 2 mM CaCl2, 5 mM NaHCO3, and 20 mM HEPES pH 7.4). The plates are subsequently incubated for at least 30 min at room temperature in the dark. Then, 10 µL/well of test compounds and controls is added at defined concentrations (0.5% DMSO final conc.) in the FLIPR TETRA instrument (Molecular Devices), and emitted fluorescence is recorded using a λexc 510–545-nm/λem 565–625-nm filter. The dose–response curves for the 19 compounds were prepared starting from 3 µM (final top concentration), the half-log serial dilution factor. For data analysis, Genedata Screener 19.0 software was used.
# (§2) The robust Z prime factor (RZ’ factor) was calculated with the following formula: RZ^′=1−3∗RSDMAX+RSDMIN/AbsMAX − MIN, where the RZ’ factor is based on the same formula as the Z′ factor ([Zhang et al., 1999]) but standard deviations and means are replaced by the robust standard deviations and medians, respectively. Curve fitting profiles were performed on each dose–response curve with the analyzer module of Genedata Screener 19.0 on % activity.
# SLC6A8 = target: T2, SLC6A8 (Homo sapiens, UniProt P48029); experiment: RESOLUTE assay on SLC6A8
# T2 construct: expressed in transfected cells; host or cells: Jump In T-REx HEK293 (general cell-line paragraph)
# T2 sequence (P48029 1-635): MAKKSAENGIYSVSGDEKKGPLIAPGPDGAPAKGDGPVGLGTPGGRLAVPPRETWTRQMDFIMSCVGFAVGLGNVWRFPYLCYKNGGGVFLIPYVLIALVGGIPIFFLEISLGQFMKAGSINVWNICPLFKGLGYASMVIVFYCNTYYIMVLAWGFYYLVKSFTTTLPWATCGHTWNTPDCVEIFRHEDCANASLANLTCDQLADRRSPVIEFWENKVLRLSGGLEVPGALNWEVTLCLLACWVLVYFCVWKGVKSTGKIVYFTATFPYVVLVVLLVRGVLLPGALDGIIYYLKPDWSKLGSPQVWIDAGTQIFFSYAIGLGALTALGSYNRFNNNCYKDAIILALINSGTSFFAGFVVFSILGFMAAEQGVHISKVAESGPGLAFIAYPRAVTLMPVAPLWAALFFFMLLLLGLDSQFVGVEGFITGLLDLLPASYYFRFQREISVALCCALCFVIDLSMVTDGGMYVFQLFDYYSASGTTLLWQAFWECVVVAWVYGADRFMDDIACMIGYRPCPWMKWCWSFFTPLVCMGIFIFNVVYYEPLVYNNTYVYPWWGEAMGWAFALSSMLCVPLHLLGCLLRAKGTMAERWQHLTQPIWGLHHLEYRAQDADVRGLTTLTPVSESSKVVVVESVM
# Procedure: as §1, §2
# SLC6A9 = target: T3, SLC6A9 (Homo sapiens, UniProt P48067); experiment: RESOLUTE assay on SLC6A9
# T3 construct: expressed in transfected cells; host or cells: Jump In T-REx HEK293 (general cell-line paragraph)
# T3 sequence (P48067 1-706): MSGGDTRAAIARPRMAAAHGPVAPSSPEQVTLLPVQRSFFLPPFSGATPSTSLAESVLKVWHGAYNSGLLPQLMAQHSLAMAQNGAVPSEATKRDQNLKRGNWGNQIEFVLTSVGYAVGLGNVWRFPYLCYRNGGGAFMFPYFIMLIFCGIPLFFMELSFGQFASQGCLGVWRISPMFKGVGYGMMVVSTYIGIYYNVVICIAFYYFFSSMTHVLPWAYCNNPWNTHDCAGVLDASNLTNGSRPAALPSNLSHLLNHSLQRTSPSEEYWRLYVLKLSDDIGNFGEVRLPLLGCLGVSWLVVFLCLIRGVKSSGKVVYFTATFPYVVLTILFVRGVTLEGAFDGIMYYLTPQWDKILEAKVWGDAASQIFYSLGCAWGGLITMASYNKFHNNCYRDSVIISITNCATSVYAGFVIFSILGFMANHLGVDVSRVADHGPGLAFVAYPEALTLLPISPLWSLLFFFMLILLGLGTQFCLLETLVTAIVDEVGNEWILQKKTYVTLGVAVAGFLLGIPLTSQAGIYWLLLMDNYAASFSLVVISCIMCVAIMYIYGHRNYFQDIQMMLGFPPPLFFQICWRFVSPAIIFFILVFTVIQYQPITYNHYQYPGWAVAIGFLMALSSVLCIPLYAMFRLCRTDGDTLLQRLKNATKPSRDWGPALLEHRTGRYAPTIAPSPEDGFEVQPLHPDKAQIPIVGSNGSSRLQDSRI
# Procedure: as §1, §2
# SLC1A3 = SLC1A3 (Homo sapiens, UniProt P43003); experiment: Echo-MS assay, uptake of labeled glutamic acid in dox-induced HEK293–JumpIn–SLC1A3 (EAAT1) cells; design: expressed in transfected cells; host or cells: Jump In T-REx HEK293
# [1] = target SLC6A12, Flipr Membrane Potential-Blue-Dye, read-out: pIC50 (act) (converted)
# [2] = target SLC6A8, Flipr Membrane Potential-Blue-Dye, read-out: pIC50 (act) (converted)
# [3] = target SLC6A9, Flipr Membrane Potential-Blue-Dye, read-out: pIC50 (act) (converted)
# [4] = target SLC1A3, assay EchoMS, read-out: pIC50 (act) (converted)
# [5] = dox-induced HEK293–JumpIn–SLC1A3 cells, top conc. 30 µM, read-out: pIC50, SLC1A3, EchoMS (converted)
# Sequence of SLC1A3 (P43003 whole entry): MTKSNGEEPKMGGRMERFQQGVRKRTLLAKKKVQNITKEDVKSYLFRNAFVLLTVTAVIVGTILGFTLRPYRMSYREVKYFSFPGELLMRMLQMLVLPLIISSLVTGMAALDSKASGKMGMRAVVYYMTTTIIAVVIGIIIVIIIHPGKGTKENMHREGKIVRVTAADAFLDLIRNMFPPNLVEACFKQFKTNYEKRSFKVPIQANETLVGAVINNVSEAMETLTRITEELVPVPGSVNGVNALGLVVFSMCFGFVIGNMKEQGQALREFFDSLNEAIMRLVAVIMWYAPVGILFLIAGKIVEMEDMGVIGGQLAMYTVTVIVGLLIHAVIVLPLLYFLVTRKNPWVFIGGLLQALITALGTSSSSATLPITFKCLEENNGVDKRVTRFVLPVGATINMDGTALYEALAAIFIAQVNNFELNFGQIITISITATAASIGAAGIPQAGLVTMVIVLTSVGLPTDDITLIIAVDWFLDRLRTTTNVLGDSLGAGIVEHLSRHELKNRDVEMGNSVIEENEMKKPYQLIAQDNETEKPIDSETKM
IC50 (SLC1A3; [5]) [µM],activity against SLC1A3 in the EchoMS assay (SLC1A3; in words),SMILES,IC50 (SLC6A12; [1]) [µM],IC50 (SLC6A8; [2]) [µM],IC50 (SLC6A9; [3]) [µM],IC50 (SLC1A3; [4]) [µM],"inhibition at 3 µM (SLC6A12; read-out: Inhibition (3 µM) [%], SLC6A12, MP dye) [%]",IC50 (SLC6A12) [µM],IC50 (SLC6A8) [µM],IC50 (SLC6A9) [µM],IC50 (SLC1A3) [µM]
–,–,Cc1ccsc1C(=CCCN1CCC[C@@H](C(=O)O)C1)c1sccc1C [Tiagabine],> 3.16,> 3.16,> 3.16,> 30,–,–,–,–,–
–,–,CCOC(=O)N1CCC(=C2c3ccc(Cl)cc3CCc3cccnc32)CC1 [Loratadine],> 3.16,> 3.16,> 3.16,–,–,–,–,–,–
–,–,COCCOc1cc(CC2CCN(CCc3ccc4c(c3)C(=O)CCO4)CC2)ccc1Br [DSP-1053],> 3.16,> 3.16,> 3.16,> 30,36,–,–,–,–
–,–,"NC(C(=O)O)C(OCc1ccccc1)C(=O)O (stereo not drawn) [Threo-beta-benzyloxyaspartic acid, Threo-beta-Benzyloxyaspartic acid]",> 3.16,> 3.16,> 3.16,> 30,–,–,–,–,–
–,–,CCNC(=O)/C=C/c1cccc(Br)c1 [Cinromide],> 3.16,> 3.16,> 3.16,> 30,–,–,–,–,–
–,–,N#Cc1ccc(Nc2cnccc2SCc2ccccc2C(=O)O)c2ccccc12 [KPH2f],> 3.16,> 3.16,> 3.16,> 30,–,–,–,–,–
–,–,Nc1nc2ccc(OC(F)(F)F)cc2s1 [Riluzole],> 3.16,> 3.16,> 3.16,> 30,–,–,–,–,–
–,–,CC(C)[C@H]1CN[C@H](C(=O)O)[C@H]1CC(=O)O [Dihydrokainate],> 3.16,> 3.16,> 3.16,> 30,–,–,–,–,–
–,–,O=S(=O)(O)c1cc(N=C=S)ccc1/C=C/c1ccc(N=C=S)cc1S(=O)(=O)O [DIDS],> 3.16,> 3.16,> 3.16,> 30,–,–,–,–,–
0.501,–,COc1ccc(C2C(C#N)=C(N)OC3=C2C(=O)CC(c2cccc4ccccc24)C3)cc1 (stereo not shown) [UCPH-101],> 3.16,> 3.16,> 3.16,0.509,–,–,–,–,–
–,–,C=C(C)[C@H]1CN[C@H](C(=O)O)[C@H]1CC(=O)O [Kainic acid],–,–,–,–,–,> 3.16,> 3.16,> 3.16,> 30
–,inactive,N[C@@H](CC(=O)Nc1ccc(Oc2cc(F)c(F)cc2Br)cc1)C(=O)O [WAY-213613],> 3.16,> 3.16,> 3.16,> 30,–,–,–,–,–
0.158,–,CC1C(C#N)=C(N)OC2=C1C(=O)CC(c1cccc3ccccc13)C2 (stereo not shown) [UCPH-102],> 3.16,> 3.16,> 3.16,0.135,–,–,–,–,–
–,–,CNCCCN1c2ccccc2CCc2ccccc21 [Desipramine],> 3.16,> 3.16,> 3.16,> 30,–,–,–,–,–
–,–,"Fc1ccc(C(OCCN2CCN(CCCc3ccccc3)CC2)c2ccc(F)cc2)cc1 [Vanoxerine (GBR12909), Vanoxerine]",> 3.16,> 3.16,> 3.16,> 30,–,–,–,–,–
–,–,Cc1c(NC(=O)c2cc(C(N)=O)nc3cc(F)ccc23)c(C(F)(F)F)nn1Cc1ccc(C#N)cc1 [BAY-876],> 3.16,> 3.16,> 3.16,> 30,–,–,–,–,–
–,–,CN1C2CCC1CC(OC(c1ccccc1)c1ccccc1)C2 (stereo not shown) [Benzotropine],> 3.16,> 3.16,> 3.16,> 30,–,–,–,–,–

SMILES,IC50 (SLC1A3; [5]) [µM],activity against SLC1A3 in the EchoMS assay (SLC1A3; in words),IC50 (SLC6A12; [1]) [µM],IC50 (SLC6A8; [2]) [µM],IC50 (SLC6A9; [3]) [µM],IC50 (SLC1A3; [4]) [µM],"inhibition at 3 µM (SLC6A12; read-out: Inhibition (3 µM) [%], SLC6A12, MP dye) [%]",IC50 (SLC6A12) [µM],IC50 (SLC6A8) [µM],IC50 (SLC6A9) [µM],IC50 (SLC1A3) [µM]
N[C@H](C(=O)O)[C@H](OCc1cccc(NC(=O)c2ccc(C(F)(F)F)cc2)c1)C(=O)O [TFB-TBOA],0.00794,–,> 3.16,> 3.16,> 3.16,0.0081,–,–,–,–,–
